Measured values taken from article PMC9851200, “Multiparameter phenotypic screening for endogenous TFEB and TFE3 translocation identifies novel chemical series modulating lysosome function” (Autophagy, 2022).

Key:
[1] = target: T1, PRKD1 (Homo sapiens, UniProt Q15139); settings: cited from earlier work
T1 sequence (Q15139 1-912): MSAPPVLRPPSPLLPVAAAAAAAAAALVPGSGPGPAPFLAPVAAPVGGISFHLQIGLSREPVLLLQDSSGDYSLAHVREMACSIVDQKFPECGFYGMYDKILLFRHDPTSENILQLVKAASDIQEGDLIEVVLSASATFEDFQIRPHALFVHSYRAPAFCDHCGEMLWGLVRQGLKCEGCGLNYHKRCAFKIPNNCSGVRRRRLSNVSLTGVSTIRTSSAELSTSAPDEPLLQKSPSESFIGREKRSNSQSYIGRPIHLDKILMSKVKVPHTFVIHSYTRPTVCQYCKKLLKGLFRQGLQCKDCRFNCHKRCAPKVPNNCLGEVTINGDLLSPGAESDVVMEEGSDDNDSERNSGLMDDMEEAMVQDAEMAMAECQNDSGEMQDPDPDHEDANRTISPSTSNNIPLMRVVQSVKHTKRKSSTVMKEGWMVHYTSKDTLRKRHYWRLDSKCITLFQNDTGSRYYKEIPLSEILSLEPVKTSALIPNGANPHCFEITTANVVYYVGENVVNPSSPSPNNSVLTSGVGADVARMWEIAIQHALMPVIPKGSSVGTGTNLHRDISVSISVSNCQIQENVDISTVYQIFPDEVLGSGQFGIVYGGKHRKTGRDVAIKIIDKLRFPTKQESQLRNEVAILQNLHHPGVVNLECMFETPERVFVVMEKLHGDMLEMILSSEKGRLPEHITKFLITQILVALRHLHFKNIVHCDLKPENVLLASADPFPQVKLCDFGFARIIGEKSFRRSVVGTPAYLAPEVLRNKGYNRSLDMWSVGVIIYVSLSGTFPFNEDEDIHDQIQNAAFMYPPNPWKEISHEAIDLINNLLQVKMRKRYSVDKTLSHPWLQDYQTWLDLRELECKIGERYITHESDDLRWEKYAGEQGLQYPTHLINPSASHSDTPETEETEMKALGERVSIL

[2] = target: CIT (Homo sapiens, UniProt O14578); settings: cited from earlier work
Chain of CIT (O14578 whole entry): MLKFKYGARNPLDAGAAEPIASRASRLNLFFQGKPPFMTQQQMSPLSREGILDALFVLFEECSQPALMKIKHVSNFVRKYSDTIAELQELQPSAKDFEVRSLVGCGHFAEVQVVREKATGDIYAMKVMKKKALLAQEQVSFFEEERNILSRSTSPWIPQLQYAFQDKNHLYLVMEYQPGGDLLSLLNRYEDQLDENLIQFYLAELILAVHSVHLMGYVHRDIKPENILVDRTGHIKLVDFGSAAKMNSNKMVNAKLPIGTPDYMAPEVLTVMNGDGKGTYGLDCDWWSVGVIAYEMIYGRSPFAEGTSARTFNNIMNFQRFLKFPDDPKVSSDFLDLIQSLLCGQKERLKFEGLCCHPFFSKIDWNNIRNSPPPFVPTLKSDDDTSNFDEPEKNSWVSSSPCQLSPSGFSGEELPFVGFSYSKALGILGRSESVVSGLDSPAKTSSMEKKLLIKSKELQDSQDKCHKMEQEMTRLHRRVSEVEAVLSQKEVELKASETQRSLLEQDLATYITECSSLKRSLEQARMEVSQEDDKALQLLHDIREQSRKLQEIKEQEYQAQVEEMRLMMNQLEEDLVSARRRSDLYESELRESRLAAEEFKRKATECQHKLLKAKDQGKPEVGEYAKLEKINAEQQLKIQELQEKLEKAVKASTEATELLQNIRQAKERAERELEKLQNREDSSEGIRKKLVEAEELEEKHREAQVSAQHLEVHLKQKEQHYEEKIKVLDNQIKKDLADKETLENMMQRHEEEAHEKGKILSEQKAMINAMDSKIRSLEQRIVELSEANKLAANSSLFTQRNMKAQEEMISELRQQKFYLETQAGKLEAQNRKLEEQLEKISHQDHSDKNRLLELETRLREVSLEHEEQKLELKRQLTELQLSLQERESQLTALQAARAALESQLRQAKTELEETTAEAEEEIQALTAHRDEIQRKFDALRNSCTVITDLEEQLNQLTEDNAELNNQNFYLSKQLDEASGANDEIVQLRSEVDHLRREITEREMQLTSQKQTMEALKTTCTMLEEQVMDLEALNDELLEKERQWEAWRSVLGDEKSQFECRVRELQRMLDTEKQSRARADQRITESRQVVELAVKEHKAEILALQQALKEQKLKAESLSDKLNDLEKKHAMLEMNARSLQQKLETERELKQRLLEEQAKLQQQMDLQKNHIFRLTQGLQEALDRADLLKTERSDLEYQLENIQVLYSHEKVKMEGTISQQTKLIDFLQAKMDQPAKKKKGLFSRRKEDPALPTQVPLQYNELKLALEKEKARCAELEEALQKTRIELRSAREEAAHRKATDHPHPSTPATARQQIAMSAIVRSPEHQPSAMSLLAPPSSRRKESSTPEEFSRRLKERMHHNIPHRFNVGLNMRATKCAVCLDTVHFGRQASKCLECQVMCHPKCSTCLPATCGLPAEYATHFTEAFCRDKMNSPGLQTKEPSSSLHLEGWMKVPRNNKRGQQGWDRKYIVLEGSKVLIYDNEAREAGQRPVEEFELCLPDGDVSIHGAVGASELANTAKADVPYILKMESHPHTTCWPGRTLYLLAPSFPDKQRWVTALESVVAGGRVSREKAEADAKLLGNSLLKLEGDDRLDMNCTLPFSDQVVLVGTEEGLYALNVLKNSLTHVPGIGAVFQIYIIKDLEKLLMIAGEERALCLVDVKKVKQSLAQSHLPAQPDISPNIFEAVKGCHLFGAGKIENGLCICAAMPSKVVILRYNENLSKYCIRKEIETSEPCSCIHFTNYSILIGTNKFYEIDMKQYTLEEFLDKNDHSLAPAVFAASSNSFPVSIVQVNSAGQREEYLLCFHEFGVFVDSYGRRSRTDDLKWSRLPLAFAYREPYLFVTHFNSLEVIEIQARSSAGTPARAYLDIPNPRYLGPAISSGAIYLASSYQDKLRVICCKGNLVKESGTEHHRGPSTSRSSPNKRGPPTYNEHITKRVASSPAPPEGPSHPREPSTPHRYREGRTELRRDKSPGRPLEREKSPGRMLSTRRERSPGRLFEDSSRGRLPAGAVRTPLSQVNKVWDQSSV

[3] = target: BMPR1B (Homo sapiens, UniProt O00238); settings: cited from earlier work
[4] = target: T2, JAK1(JH2) (Homo sapiens, UniProt P23458); settings: cited from earlier work
T2 construct: JAK1(JH2)
T2 sequence (P23458 583-855 limits assumed): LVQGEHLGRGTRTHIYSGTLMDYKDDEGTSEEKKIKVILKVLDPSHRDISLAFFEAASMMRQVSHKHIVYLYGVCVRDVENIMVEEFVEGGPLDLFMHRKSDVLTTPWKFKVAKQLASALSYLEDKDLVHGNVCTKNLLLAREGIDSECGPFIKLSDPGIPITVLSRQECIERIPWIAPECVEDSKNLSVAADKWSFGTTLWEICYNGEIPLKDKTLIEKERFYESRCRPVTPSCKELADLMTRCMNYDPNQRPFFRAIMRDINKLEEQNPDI

[5] = target: MTOR (Homo sapiens, UniProt P42345); settings: cited from earlier work
[6] = target: PIKFYVE (Homo sapiens, UniProt Q9Y2I7); settings: cited from earlier work
Chain of PIKFYVE (Q9Y2I7 whole entry): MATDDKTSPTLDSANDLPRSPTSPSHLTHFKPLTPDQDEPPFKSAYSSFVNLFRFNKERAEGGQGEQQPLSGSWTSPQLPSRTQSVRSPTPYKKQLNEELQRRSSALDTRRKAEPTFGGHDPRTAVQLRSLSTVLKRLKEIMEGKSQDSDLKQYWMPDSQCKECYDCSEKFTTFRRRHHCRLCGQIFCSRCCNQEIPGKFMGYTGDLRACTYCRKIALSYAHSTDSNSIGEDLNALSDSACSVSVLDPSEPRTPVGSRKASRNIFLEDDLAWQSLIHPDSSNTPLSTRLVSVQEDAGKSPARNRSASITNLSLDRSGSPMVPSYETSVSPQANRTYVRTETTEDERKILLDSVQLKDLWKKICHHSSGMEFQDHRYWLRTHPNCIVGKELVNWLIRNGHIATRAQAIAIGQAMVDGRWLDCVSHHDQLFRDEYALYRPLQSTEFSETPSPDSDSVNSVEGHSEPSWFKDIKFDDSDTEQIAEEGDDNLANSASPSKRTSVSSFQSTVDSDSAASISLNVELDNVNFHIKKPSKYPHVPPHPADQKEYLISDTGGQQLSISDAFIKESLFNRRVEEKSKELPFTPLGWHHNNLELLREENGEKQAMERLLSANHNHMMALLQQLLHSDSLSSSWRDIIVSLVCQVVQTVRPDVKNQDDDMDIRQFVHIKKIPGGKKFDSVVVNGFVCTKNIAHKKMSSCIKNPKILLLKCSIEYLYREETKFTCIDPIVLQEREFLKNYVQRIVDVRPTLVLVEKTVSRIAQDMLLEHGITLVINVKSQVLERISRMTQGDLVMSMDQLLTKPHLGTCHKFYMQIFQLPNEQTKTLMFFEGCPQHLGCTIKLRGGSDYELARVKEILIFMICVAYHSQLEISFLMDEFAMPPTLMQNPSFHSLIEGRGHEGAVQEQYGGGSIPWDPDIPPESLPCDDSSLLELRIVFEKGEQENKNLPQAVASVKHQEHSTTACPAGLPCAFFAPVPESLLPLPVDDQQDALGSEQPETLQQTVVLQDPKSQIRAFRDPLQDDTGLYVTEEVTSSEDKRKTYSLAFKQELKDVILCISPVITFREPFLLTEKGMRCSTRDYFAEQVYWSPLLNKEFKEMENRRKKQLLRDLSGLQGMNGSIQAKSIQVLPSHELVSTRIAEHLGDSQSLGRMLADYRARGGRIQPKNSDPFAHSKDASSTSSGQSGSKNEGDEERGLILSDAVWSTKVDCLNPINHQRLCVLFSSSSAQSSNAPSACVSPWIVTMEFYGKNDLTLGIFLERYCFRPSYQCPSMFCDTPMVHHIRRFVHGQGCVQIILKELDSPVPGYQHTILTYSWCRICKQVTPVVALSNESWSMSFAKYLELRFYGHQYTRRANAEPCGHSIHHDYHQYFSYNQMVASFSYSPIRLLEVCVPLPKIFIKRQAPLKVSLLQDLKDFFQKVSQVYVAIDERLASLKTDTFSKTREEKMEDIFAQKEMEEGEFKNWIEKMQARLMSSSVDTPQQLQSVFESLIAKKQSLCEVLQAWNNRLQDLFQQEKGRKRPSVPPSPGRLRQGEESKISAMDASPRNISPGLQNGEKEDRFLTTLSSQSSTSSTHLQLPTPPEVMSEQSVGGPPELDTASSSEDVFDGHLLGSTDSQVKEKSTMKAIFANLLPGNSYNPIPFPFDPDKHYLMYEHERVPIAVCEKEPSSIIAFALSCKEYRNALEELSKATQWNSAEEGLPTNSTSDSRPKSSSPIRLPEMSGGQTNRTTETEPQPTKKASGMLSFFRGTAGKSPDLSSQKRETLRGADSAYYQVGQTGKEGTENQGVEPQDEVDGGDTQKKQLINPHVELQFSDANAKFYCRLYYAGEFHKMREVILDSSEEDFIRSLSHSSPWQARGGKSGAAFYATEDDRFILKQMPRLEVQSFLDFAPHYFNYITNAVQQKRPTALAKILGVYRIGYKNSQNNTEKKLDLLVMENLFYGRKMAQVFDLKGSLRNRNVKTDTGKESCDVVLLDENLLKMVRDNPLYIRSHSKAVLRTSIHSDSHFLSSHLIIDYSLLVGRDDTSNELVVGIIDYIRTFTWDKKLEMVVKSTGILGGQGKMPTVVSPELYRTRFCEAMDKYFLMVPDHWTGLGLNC

[7] = target: TGFBR2 (Homo sapiens, UniProt P37173); settings: cited from earlier work
[8] = target: T3, PRKD2 (Homo sapiens, UniProt Q9BZL6); settings: cited from earlier work
T3 sequence (Q9BZL6 1-878): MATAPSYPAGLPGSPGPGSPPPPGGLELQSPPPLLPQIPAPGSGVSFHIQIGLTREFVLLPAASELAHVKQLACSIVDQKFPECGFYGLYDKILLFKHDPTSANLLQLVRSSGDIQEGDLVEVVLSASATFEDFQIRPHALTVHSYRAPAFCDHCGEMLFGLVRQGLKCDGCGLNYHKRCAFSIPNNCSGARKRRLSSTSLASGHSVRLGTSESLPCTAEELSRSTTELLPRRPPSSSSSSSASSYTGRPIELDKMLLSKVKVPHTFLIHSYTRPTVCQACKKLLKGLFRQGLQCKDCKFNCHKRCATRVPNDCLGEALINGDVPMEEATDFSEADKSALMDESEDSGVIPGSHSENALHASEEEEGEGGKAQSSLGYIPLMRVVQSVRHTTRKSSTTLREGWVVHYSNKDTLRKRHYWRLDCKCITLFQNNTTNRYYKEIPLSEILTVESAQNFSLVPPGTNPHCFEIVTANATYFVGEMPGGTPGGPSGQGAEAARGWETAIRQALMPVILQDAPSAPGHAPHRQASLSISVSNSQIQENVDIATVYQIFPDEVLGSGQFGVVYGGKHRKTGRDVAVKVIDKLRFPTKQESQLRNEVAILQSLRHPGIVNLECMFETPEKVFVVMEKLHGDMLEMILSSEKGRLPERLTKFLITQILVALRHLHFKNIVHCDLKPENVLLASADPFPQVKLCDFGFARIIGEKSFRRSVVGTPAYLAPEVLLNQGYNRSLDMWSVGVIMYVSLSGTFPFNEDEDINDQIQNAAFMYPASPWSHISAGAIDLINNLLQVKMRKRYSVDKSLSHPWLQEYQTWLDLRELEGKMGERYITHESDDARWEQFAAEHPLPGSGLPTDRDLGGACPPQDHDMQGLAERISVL

[9] = target: CDC42BPG/DMPK2 (Homo sapiens, UniProt Q6DT37); settings: cited from earlier work
[10] = target: T4, PRKD3 (Homo sapiens, UniProt O94806); settings: cited from earlier work
T4 sequence (O94806 1-890): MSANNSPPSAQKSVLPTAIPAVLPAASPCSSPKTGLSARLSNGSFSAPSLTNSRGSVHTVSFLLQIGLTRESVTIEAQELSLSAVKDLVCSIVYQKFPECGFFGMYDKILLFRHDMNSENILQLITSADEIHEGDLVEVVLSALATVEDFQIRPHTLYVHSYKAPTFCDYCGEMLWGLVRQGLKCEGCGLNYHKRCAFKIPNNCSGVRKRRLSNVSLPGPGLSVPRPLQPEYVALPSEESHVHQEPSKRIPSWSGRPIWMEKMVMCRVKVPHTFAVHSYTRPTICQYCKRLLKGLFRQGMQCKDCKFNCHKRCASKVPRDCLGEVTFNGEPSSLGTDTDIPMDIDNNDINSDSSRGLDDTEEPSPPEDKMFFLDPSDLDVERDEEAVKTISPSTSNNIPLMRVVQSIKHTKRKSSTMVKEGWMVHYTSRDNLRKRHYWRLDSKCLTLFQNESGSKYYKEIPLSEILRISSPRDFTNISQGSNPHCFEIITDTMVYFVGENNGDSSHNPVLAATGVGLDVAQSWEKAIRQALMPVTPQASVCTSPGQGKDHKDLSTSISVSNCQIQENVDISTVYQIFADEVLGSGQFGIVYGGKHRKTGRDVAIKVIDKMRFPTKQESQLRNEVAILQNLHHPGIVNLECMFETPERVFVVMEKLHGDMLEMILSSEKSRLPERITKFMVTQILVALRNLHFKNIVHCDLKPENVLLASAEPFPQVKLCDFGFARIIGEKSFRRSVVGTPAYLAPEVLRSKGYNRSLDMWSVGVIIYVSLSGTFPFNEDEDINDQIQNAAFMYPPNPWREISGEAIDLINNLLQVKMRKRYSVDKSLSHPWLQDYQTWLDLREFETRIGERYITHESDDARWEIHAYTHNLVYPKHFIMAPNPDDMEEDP

[11] = target: CSNK1E (Homo sapiens, UniProt P49674); settings: cited from earlier work
[12] = target: CDC42BPB/MRCKB (Homo sapiens, UniProt Q9Y5S2); settings: cited from earlier work
[13] = target: T5, ACVR1B (Homo sapiens, UniProt P36896); settings: cited from earlier work
T5 sequence (P36896 24-505): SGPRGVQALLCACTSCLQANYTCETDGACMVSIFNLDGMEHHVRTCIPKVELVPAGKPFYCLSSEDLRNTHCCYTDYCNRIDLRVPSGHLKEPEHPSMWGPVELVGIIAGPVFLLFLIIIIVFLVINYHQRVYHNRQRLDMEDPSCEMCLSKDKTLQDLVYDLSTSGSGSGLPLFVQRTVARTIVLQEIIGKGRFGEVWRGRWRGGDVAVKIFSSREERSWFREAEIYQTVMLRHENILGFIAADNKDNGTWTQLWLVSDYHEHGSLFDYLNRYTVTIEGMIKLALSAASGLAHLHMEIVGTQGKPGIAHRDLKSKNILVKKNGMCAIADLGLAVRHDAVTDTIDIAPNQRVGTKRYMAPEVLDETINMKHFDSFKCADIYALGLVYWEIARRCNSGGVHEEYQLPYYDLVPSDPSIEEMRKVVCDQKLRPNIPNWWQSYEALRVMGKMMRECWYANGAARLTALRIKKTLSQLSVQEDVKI

[14] = target: CSNK1D (Homo sapiens, UniProt P48730); settings: cited from earlier work
Chain of CSNK1D (P48730 whole entry): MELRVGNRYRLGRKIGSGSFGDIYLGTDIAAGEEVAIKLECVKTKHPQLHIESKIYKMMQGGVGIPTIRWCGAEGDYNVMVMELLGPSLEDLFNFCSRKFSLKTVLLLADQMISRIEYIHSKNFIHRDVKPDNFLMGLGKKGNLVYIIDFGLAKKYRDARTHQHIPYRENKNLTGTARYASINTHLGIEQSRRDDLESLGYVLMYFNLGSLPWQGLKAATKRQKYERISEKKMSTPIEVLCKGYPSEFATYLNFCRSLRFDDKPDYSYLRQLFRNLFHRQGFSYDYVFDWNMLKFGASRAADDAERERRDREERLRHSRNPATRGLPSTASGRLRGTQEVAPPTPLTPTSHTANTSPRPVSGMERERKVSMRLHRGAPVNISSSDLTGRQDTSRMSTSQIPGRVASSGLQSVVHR

[15] = system: endogenous TFE3; test: TFE3 nuclear translocation, immunocytochemistry high-content imaging; assay type: cell-based
[16] = system: SH-SY5Y cells; settings: human, SH-SY5Y cells, 24 h, 1 µM; note: reference of the scale not given here
[17] = system: SH-SY5Y cells; test: Chemotype enrichment analysis of PKIS2 primary screen hit categories
[18] = system: SH-SY5Y cells; note: reference of the scale not given here
[19] = system: endogenous TFEB; test: TFEB nuclear translocation, immunocytochemistry high-content imaging; assay type: cell-based
[20] = system: SH-SY5Y cells; settings: human, SH-SY5Y cells, 24 h, 1 µM; remark: listed apart in the source; note: reference of the scale not given here

Cc1cccc(-c2nc(Nc3ccc4[nH]ncc4c3)c3ccccc3n2)n1 [GW857175]
KINOMEscan binding PRKD1 [1]: 99.8%
KINOMEscan binding CIT [2]: 9%
KINOMEscan binding BMPR1B [3]: 34%
KINOMEscan binding JAK1(JH2) [4]: 83%
KINOMEscan binding MTOR [5]: 0%
KINOMEscan binding PIKFYVE [6]: 85%
KINOMEscan binding TGFBR2 [7]: 0%
KINOMEscan binding PRKD2 [8]: 99.9%
KINOMEscan binding CDC42BPG/DMPK2 [9]: 72%
KINOMEscan binding PRKD3 [10]: 98.1%
KINOMEscan binding CSNK1E [11]: 28%
KINOMEscan binding CDC42BPB/MRCKB [12]: 72%
KINOMEscan binding ACVR1B [13]: 100%
KINOMEscan binding CSNK1D [14]: 28%

O=C(Nc1n[nH]c2nc(-c3ccco3)c(Br)cc12)C1CCN(Cc2ccccc2)C1 (stereo not drawn) [SB-742034]
TFE3 % [15]: 21.82%
Nuclear Count [16]: 103.32
Outcome [17]: TFE3
DQ Intensity [18]: 103.44
DQ Spot [18]: 100.36
TFEB % [19]: 3.21%
AK [20]: 87.38

COc1cccc(C2=C(Nc3cccc(C(=O)O)c3)C(=O)NC2=O)c1 [UNC10225061A]
TFE3 % [15]: 19.97%
Nuclear Count [16]: 71.42
Outcome [17]: TFE3
DQ Intensity [18]: 83.20
DQ Spot [18]: 110.64
TFEB % [19]: 7.42%
AK [20]: 91.51

CN(C1=C(c2ccccc2)C(=O)NC1=O)c1ccccc1 [UNC10225087A]
TFE3 % [15]: 7.91%
Nuclear Count [16]: 105.86
Outcome [17]: TOXIC
DQ Intensity [18]: 118.90
DQ Spot [18]: 112.39
TFEB % [19]: 6.00%
AK [20]: 157.36

O=C1NC(=O)C(N2CCc3ccccc32)=C1c1cccc(Cl)c1 [UNC10225137A]
TFE3 % [15]: 20.87%
Nuclear Count [16]: 132.24
Outcome [17]: TFE3
DQ Intensity [18]: 107.62
DQ Spot [18]: 107.27
TFEB % [19]: 4.79%
AK [20]: 100.20

O=C1NC(=O)C(N2CCc3ccccc32)=C1c1ccccc1Cl [UNC10225255A]
TFE3 % [15]: 11.28%
Nuclear Count [16]: 86.30
Outcome [17]: DQ Only
DQ Intensity [18]: 155.35
DQ Spot [18]: 121.27
TFEB % [19]: 3.84%
AK [20]: 83.08

COc1ccc(C2=C(Nc3cccc(O)c3)C(=O)NC2=O)cc1 [UNC10225299A]
TFE3 % [15]: 15.17%
Nuclear Count [16]: 77.10
Outcome [17]: DQ Only
DQ Intensity [18]: 174.21
DQ Spot [18]: 115.16
TFEB % [19]: 8.50%
AK [20]: 102.75

Fc1ccc(-c2ncn(C3CCNCC3)c2-c2ccnc(Oc3ccc(-c4ccccc4)cc3)n2)cc1 [UNC10225377A]
TFE3 % [15]: 24.21%
Nuclear Count [16]: 106.99
Outcome [17]: TFE3 + DQ Int
DQ Intensity [18]: 170.99
DQ Spot [18]: 76.67
TFEB % [19]: 13.41%
AK [20]: 108.76
